Laboratory results reported in EP1614683B1, “Indazole compounds and pharmaceutical compositions for inhibiting protein kinases, and methods for their use” (priority 1999, dated 2001).
Like-named read-outs stand apart in the source and are kept apart here. Each block holds one compound with its values, some of them ahead of it.

How the values were obtained:
[1] = biological target: unphosphorylated VEGF-R2Δ50 (Homo sapiens, UniProt P35968, DEL940-989/E990V); assay: biochemical; details: for inhibition at 0.05 µM: read-out: FLVK ** (% inhibition); for inhibition at 1 µM: read-out: FLVK ** (% inhibition, cell marked *)
Chain of unphosphorylated VEGF-R2Δ50 (P35968 with tags, fused parts or gaps DEL940-989/E990V limits assumed): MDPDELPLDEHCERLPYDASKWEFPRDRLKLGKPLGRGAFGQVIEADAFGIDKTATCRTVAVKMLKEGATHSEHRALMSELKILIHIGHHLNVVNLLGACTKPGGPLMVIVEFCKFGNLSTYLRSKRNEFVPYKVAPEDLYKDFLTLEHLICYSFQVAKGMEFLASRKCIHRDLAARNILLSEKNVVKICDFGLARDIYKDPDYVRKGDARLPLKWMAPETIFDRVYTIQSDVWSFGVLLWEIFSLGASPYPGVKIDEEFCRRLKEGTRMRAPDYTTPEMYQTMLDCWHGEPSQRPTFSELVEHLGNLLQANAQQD

[2] = tested on: human umbilical vein endothelial cells (HUVEC); assay: HUVEC proliferation assay (VEGF-stimulated, MTT); assay type: cell-based; details: Homo sapiens, HUVEC, Table 1
LCK tyrosine kinase = LCK tyrosine kinase (Homo sapiens, UniProt P06239, C224D/P223M); assay: LCK spectrophotometric assay; assay type: biochemical; details: Table 1; compound concentration 1 µM; read-out: Lck-P* (% inhibition)
Chain of LCK tyrosine kinase (P06239 223-509 P223M/C224D): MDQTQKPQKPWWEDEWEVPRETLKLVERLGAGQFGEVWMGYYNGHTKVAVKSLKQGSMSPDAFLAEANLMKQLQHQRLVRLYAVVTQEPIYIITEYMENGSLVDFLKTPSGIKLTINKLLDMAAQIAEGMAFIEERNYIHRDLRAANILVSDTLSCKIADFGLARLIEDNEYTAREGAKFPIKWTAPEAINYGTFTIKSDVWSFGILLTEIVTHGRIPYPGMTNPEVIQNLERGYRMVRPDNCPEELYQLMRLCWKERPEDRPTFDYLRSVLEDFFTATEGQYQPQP
Method: The spectrophotometric assay was carried out as described above for VEGF-R2, except for the following changes in concentration: LCK = 60 nM, MgCl2 = 0 mM, poly(E4Y1) = 20 mM.

in vitro = in vitro ADME, human; details: 2 h; for remaining at 2 h, 5 µM: read-out: % remain (HLM, 2 h)
Method: Compound metabolism in human liver microsomes was measured by LC-MS analytical assay procedures as follows. First, human liver microsomes (HLM) were thawed and diluted to 5 mg/mL with cold 100 mM potassium phosphate (KPO4) buffer. Appropriate amounts of KPO4 buffer, NADPH-regenerating solution (containing B-NADP, glucose-6-phosphate, glucose-6-phosphate dehydrogenase, and MgCl2), and HLM were preincubated in 13 x 100 mm glass tubes at 37 C for 10 min. (3 tubes per test compound--triplicate). Test compound (5 µM final) was added to each tube to initiate reaction and was mixed by gentle vortexing, followed by incubation at 37 °C. At t=0, 2 h, a 250-µL sample was removed from each incubation tube to separate 12 x 75 mm glass tubes containing 1 mL ice-cold acetonitrile with 0.05 µM reserpine. […] Supernatant was transferred to new 12 x 75 mm glass tubes and evaporated by Speed-Vac centrifugal vacuum evaporator. Samples were reconstituted in 200 µL 0.1 % formic acid/acetonitrile (90/10) and vortexed vigorously to dissolve. The samples were then transferred to separate polypropylene microcentrifuge tubes and centrifuged at 14000 x g for 10 min. (Fisher Micro 14, S/N M0017580). For each replicate (#1-3) at each timepoint (0 and 2 h), an aliquot sample of each test compound was combined into a single HPLC vial insert (6 total samples) for LC-MS analysis, which is described below.

human FGF-R1 = human FGF-R1 (Homo sapiens, UniProt P11362, C488A/C584S/L457V); assay: FGF-R spectrophotometric assay; assay type: biochemical; details: Table 1; compound concentration 1 µM; read-out: FGF-P* (% inhibition)
Chain of human FGF-R1 (P11362 456-766 L457V/C488A/C584S): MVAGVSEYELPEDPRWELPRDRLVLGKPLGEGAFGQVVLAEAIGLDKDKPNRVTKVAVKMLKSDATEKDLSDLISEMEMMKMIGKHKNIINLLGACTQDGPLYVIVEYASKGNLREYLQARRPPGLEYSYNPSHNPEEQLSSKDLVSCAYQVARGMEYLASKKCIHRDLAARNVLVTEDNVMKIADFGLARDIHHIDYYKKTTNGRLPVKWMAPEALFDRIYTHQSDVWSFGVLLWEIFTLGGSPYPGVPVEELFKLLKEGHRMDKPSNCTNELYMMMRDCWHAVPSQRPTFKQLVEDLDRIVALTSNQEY
Method: The spectrophotometric assay was carried out as described above for VEGF-R2, except for the following changes in concentration: FGF-R = 50 nM, ATP = 2 mM, and poly(E4Y1) =15 mM.

[3] = + albumin, read-out: HUVEC + albumin IC50
[4] = human liver microsomes, 5 µM test compound, 37 °C

Compound: C[C@@H]1C[C@H]1C(=O)Nc1cccc(C(=O)c2ccc3c(/C=C/c4ccccn4)n[nH]c3c2)c1 (racemic) [Reference Example 41(h), 6-[3-((2-RS-trans-methylcyclopropyl)carboxamido)benzoyl]-3-E-[2-(pyridin-2-yl)ethenyl]-1H-indazole]
inhibition at 0.05 µM [1]: 90%
IC50 [2, 3]: 25 nM
IC50 ([2]; read-out: HUVEC IC50): 2 nM
inhibition at 1 µM (LCK tyrosine kinase): 30%
remaining at 2 h, 5 µM (in vitro; [4]): 8%

Ki ([1]; FLVK ** (Ki), Table 1): 0.86 nM
inhibition at 1 µM (LCK tyrosine kinase): 19%
inhibition at 1 µM (human FGF-R1): 59%
remaining at 2 h, 5 µM (in vitro; [4]): 90%
Compound: O=C(Cc1ccccn1)Nc1cccc(C(=O)c2ccc3c(/C=C/c4ccccc4)n[nH]c3c2)c1 [19(g), 6-[3-(pyridin-2-ylacetamido)benzoyl]-3-E-styryl-1H-indazole]
IC50 [2, 3]: 1920 nM
IC50 ([2]; read-out: HUVEC IC50): 18 nM

Compound: Cc1cc(C(=O)Nc2cc(C(=O)c3ccc4c(/C=C/c5ccccn5)n[nH]c4c3)c(C)cc2C)n(C)n1 [41(min)]
inhibition at 0.05 µM [1]: 93%
IC50 [2, 3]: 14.4 nM
IC50 ([2]; read-out: HUVEC IC50): 1.3 nM
inhibition at 1 µM (LCK tyrosine kinase): 6%
inhibition at 1 µM (human FGF-R1): 46%
% remain (HLM, 2 h) (in vitro; human, microsomes, 5 µM): 94%

Compound: COc1cccc(CNC(=O)c2ccccc2Sc2ccc3c(/C=C/c4ccccn4)n[nH]c3c2)c1 [Reference Example 35(aa)]
inhibition at 0.05 µM [1]: 99%
IC50 [2, 3]: 5 nM
% remain (HLM, 2 h) (in vitro; [4]): 15%

Compound: O=C(NCc1ccco1)c1ccccc1Sc1ccc2c(/C=C/c3ccccn3)n[nH]c2c1 [Reference Example 35(bb), 6-[2-((fur-2-yl)methylcarbamoyl)phenylsulfanyl]-3-E-[2-(pyridin-2-yl)ethenyl]-1H-indazole]
inhibition at 0.05 µM [1]: 87%
IC50 [2, 3]: 4.1 nM
% remain (HLM, 2 h) (in vitro; [4]): 8%

Compound: Cn1cccc1C(=O)NNC(=O)c1ccccc1Sc1ccc2c(/C=C/c3ccccn3)n[nH]c2c1 [Reference Example 35(e), 6-[2-((1-methylpyrrol-2-ylhydrazido)carbonyl)phenylsulfanyl]-3-E-[2-(pyridin-2-yl)ethenyl)-1H-indazole]
inhibition at 0.05 µM [1]: 99%
IC50 [2, 3]: 4.8 nM
inhibition at 1 µM (LCK tyrosine kinase): 56%
inhibition at 1 µM (human FGF-R1): 69%
% remain (HLM, 2 h) (in vitro; [4]): 34%

Compound: C=C(C)CNC(=O)c1ccccc1Sc1ccc2c(/C=C/c3ccccn3)n[nH]c2c1 [Reference Example 35(ee), 6-[2-(2-Methyl-2-propenylcarbamoyl)phenylsulfanyl]-3-E-[2-(pyridin-2-yl)ethenyl]-1H-indazole]
inhibition at 0.05 µM [1]: 82%
IC50 [2, 3]: 3 nM
% remain (HLM, 2 h) (in vitro; [4]): 13%

Compound: O=C(NCc1ccccc1F)c1ccccc1Sc1ccc2c(/C=C/c3ccccn3)n[nH]c2c1 [Reference Example 35(f)]
inhibition at 0.05 µM [1]: 100%
% remain (HLM, 2 h) (in vitro; [4]): 15%

Compound: COc1ccc(CNC(=O)c2ccccc2Sc2ccc3c(/C=C/c4ccccn4)n[nH]c3c2)cc1 [Reference Example 35(g)]
inhibition at 0.05 µM [1]: 100%
IC50 [2, 3]: ~15 nM
% remain (HLM, 2 h) (in vitro; [4]): 53%

Compound: Cc1ccc(CNC(=O)c2ccccc2Sc2ccc3c(/C=C/c4ccccn4)n[nH]c3c2)o1 [Reference Example 35(h), 6-[2-((5-Methylfur-2-yl)methylcarbamoyl)phenylsulfanyl)-3-E-[2-(pyridin-2-yl)ethenyl]-1H-indazole]
inhibition at 0.05 µM [1]: 100%
IC50 [2, 3]: 3.6 nM
% remain (HLM, 2 h) (in vitro; [4]): 9%

Compound: O=C(NOCC1CC1)c1ccccc1Sc1ccc2c(/C=C/c3ccccn3)n[nH]c2c1 [Reference Example 35(s), 6-[2-((Cyclopropyl)methoxycarbamoyl)phenylsulfanyl]-3-E-[2-(pyridin-2-yl)ethenyl]-1H-indazole]
inhibition at 1 µM [1]: 60%
IC50 [2, 3]: 4.6 nM
inhibition at 1 µM (LCK tyrosine kinase): 18%
inhibition at 1 µM (human FGF-R1): 64%
remaining at 2 h, 5 µM (in vitro; [4]): 16%

Compound: CCCONC(=O)c1ccccc1Sc1ccc2c(/C=C/c3ccccn3)n[nH]c2c1 [Reference Example 35(t), 6-[2-(n-Propoxycarbamoyl)phenylsulfanyl]-3-E-[2-(pyridin-2-yl)ethenyl]-1H-indazole]
inhibition at 1 µM [1]: 59%
IC50 [2, 3]: 4 nM
inhibition at 1 µM (LCK tyrosine kinase): 12%
inhibition at 1 µM (human FGF-R1): 63%
% remain (HLM, 2 h) (in vitro; [4]): 7%

Compound: C=CCNC(=O)c1ccccc1Sc1ccc2c(/C=C/c3ccccn3)n[nH]c2c1 [Reference Example 35(u), 6-[2-(Allylcarbamoyl)phenylsulfanyl]-3-E-[2-(pyridin-2-yl)ethenyl]-1H-indazole]
inhibition at 0.05 µM [1]: 79%
IC50 [2, 3]: 2.8 nM
% remain (HLM, 2 h) (in vitro; [4]): 27%

Compound: CCNC(=O)c1ccccc1Sc1ccc2c(/C=C/c3ccccn3)n[nH]c2c1 [Reference Example 35(x), 6-[2-(Ethylcarbamoyl)phenylsulfanyl]-3-E-[2-(pyridin-2-yl)ethenyl]-1H-indazole]
inhibition at 0.05 µM [1]: 75%
IC50 [2, 3]: 2 nM
% remain (HLM, 2 h) (in vitro; [4]): 37%

Compound: O=C(Nc1nccs1)c1ccccc1Sc1ccc2c(/C=C/c3ccccn3)n[nH]c2c1 [Reference Example 35(y), 6-[2-(Thiazol-2-ylcarbamoyl)phenylsulfanyl]-3-E-[2-(pyridin-2-yl)ethenyl]-1H-indazole]
inhibition at 0.05 µM [1]: 99%
IC50 [2, 3]: 1 to 3 nM
inhibition at 1 µM (LCK tyrosine kinase): 29%
inhibition at 1 µM (human FGF-R1): 82%
% remain (HLM, 2 h) (in vitro; [4]): 7%

Compound: CCOCCNC(=O)c1ccccc1Sc1ccc2c(/C=C/c3ccccn3)n[nH]c2c1 [Reference Example 35(z), 6-[2-(2-(Ethoxy)ethylcarbamoyl)phenylsulfanyl]-3-E-[2-(pyridin-2-yl)ethenyl]-1H-indazole]
inhibition at 0.05 µM [1]: 95%
IC50 [2, 3]: 7.1 nM
% remain (HLM, 2 h) (in vitro; [4]): 2%

Compound: C=CCn1nc(C)cc1C(=O)Nc1cc(C(=O)c2ccc3c(/C=C/c4ccccn4)n[nH]c3c2)ccc1C [Reference Example 41(ff), 6-[3-((1-Allyl-3-methyl-1H-pyrazol-5-yl)carboxamido)-4-methylbenzoyl]-3-E-[2-(pyridin-2-yl)ethenyl]-1H-indazole]
inhibition at 0.05 µM [1]: 98%
IC50 [2, 3]: 5.6 nM
inhibition at 1 µM (LCK tyrosine kinase): 15%
% remain (HLM, 2 h) (in vitro; [4]): 68%

Compound: Cc1cc(C(=O)Nc2cc(C(=O)c3ccc4c(/C=C/c5ccccn5)n[nH]c4c3)ccc2C)n(C)n1 [Reference Example 41(hh), 6-[3-((1,3-Dimethyl-1H-pyrazol-5-yl)carboxamido)-4-methylbenzoyl]-3-E-[2-(pyridin-2-yl)ethenyl]-1H-indazole]
inhibition at 0.05 µM [1]: 98%
IC50 [2, 3]: 3.9 nM
inhibition at 1 µM (LCK tyrosine kinase): 13%
inhibition at 1 µM (human FGF-R1): 74%

Compound: CCc1cc(C(=O)Nc2cc(C(=O)c3ccc4c(/C=C/c5ccccn5)n[nH]c4c3)ccc2C)n(C)n1 [Reference Example 41(jj), 6-[3-((3-Ethyl-1-methyl-1H-pyrazol-5-yl)carboxamido)-4. methylbenzoyl]-3-E-[2-(pyridin-2-yl)ethenyl]-1H-indazole]
inhibition at 0.05 µM [1]: 87%
IC50 [2, 3]: 21 nM
inhibition at 1 µM (LCK tyrosine kinase): 19%
inhibition at 1 µM (human FGF-R1): 81%

Compound: CCc1cc(C(=O)Nc2cccc(C(=O)c3ccc4c(/C=C/c5ccccn5)n[nH]c4c3)c2)n(C)n1 [Reference Example 41(v), 6-[3-((3-Ethyl-1-methyl-1H-pyrazol-5-yl)carboxamido)benzoyl]-3-E-[2-(pyridin-2-yl)ethenyl)-1H-indazole]
inhibition at 1 µM [1]: 68%
IC50 [2, 3]: 12 nM
inhibition at 1 µM (LCK tyrosine kinase): 52%
inhibition at 1 µM (human FGF-R1): 68%

Compound: O=C(Nc1cccc(C(=O)c2ccc3c(/C=C/c4ccccn4)n[nH]c3c2)c1)c1ccnc(Cl)c1 [Reference Example 41(w), 6-[3-((2-chloropyridin-4-yl)carboxamido)benzoyl]-3-E-[2-(pyridin-2-yl)ethenyl]-1H-indazole]
inhibition at 0.05 µM [1]: 97%
IC50 [2, 3]: ~10 nM
inhibition at 1 µM (LCK tyrosine kinase): 49%
inhibition at 1 µM (human FGF-R1): 67%

inhibition at 0.05 µM [1]: 98%
inhibition at 1 µM (LCK tyrosine kinase): 61%
inhibition at 1 µM (human FGF-R1): 86%
Compound: CC(C)COC(=O)Nc1cccc(C(=O)c2ccc3c(/C=C/c4ccccn4)n[nH]c3c2)c1 [Reference Example 41(y)]
IC50 [2, 3]: 30 to 100 nM

Compound: O=C(c1cccc(NC(=O)c2cc(Cl)ccn2)c1)c1ccc2c(/C=C/c3ccccn3)n[nH]c2c1 [Reference Example 41(z), 6-[3-((4-chloropyridin-2-yl)carboxamido)benzoyl]-3-E-[2-(pyridin-2-yl)ethenyl]-1H-indazole]
inhibition at 0.05 µM [1]: 100%
IC50 [2, 3]: 7.5 nM
inhibition at 1 µM (LCK tyrosine kinase): 54%
inhibition at 1 µM (human FGF-R1): 74%
